Inconclusive results are not listed. Activity calls are given as the source filed them.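 The calls were made as follows: active = compounds lowering the luciferase signal with a fitted half-maximal dose at most twice their top valid dose (cut at about 30 µM in these data); inconclusive = flat fits with moderate signal loss, or poor fits; inactive = the rest.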

A word on the AC50: it is the concentration giving half of the maximal activity seen.

In the test the test system is Clone20 osteoblast Shn3 3'UTR firefly luciferase, 24 h. As to the kind of experiment: Schnurri-3 3'UTR-luciferase signal suppressors – cell-based, Clone20 osteoblasts, luminescence, dry powder, set 2, dose response (AID 743417).
For the compound `Cc1cc(C(=O)COC(=O)c2ccccc2O)c(C)n1Cc1cccs1`, the AC50 was 8.99 µM.
Under `FC(F)(F)c1nnc(-c2ccccc2)nc1Sc1ccc(Cl)cc1` stands 14.7 µM; under `O=C(OCCC12CC3CC(CC(C3)C1)C2)c1ccc(NCc2cc(O)ccc2O)cc1`, 1.82 µM; under `Cc1ccc(NC(=O)c2nc(S(=O)(=O)Cc3ccccc3C)ncc2Cl)cc1C`, 0.486 µM.
Turning to `CC1(C)CC(=O)c2c(nc(SCC(=O)Nc3nsc(-c4ccccc4)n3)c(C#N)c2-c2ccccc2)C1`, the AC50 is > 70 µM (inactive).
Under `CCOc1ccc(OCC(=O)N(CCC2=CCCCC2)c2c(N)n(Cc3ccccc3)c(=O)[nH]c2=O)cc1` stands 8.66 µM; under `CCN(CC)C(=O)c1oc2ccc(S(=O)(=O)N3CC(C)CC(C)C3)cc2c1C` (stereo not drawn), 1.02 µM; under `Cc1cccc(NC(=O)c2nc(S(=O)(=O)Cc3ccccc3)ncc2Cl)c1`, 2.66 µM.
Under `Cc1ccc2[nH]c3c(N4CCN(Cc5ccccc5)CC4)ncnc3c2c1` stands 4.18 µM; under `O=c1c2ccccc2sc2ccc(C#CC3(O)CCCCC3)cc12`, < 0.26 µM.
As for `Cc1ccn2cc(-c3ccc(O)c(O)c3)nc2c1`, the AC50 was 2.44 µM.
Under `COC(=O)c1ccc(CCc2cc(O)ccc2O)cc1` stands 3.14 µM; under `Cc1ccc(S(=O)(=O)N2CCN(c3ncnc4sccc34)CC2)cc1`, 2.72 µM.
Under `Cc1ccc(NC(=O)CSc2nn(-c3ccccc3)c(=S)s2)cc1S(=O)(=O)N(C)C` stands 5.82 µM; under `Cc1nc(SCC(=O)Nc2nc3ccccc3s2)c(C#N)c(C)c1C`, < 0.26 µM.
With `Cc1ccn2c(Nc3ccccc3)c(-c3ccccn3)nc2c1`, the AC50 is 2.31 µM.
Under `COc1ccccc1OCC(O)Cn1c(=N)n(Cc2ccccc2)c2ccccc21` (stereo not drawn) stands 4.01 µM.
For the compound `CCN(CC)S(=O)(=O)c1cc(NC(=O)C2CCN(c3ncnc4sc(C)c(C)c34)CC2)ccc1Cl`, the AC50 was 5.08 µM.
Under `CCOC(=O)/C(=C\c1ccc([N+](=O)[O-])cc1)C(=O)c1cc(C(C)=O)c(Nc2ccccc2)s1` stands 2.47 µM.
For `CC(C)CCC(C(=O)O)C(C)CC(=O)NNC(=O)c1ccco1` (stereo not drawn), the AC50 is > 70 µM (inactive).
Regarding `Oc1cc(Nc2cccnc2)cc2cccnc12`, the AC50 was 2.12 µM.
Under `CCCC(=O)NC(c1ccc(Cl)cc1Cl)c1ccc2cccnc2c1O` (stereo not drawn) stands 0.638 µM; under `N=c1n(Cc2ccc(Cl)cc2)c2ccccc2n1CC(O)COc1ccccc1` (stereo not drawn), 2.34 µM.
Regarding `O=S(=O)(NCc1ccncc1)c1ccc(F)c(F)c1`, the AC50 is 2.09 µM.
Under `S=C(NCc1ccc(Cl)cc1)Nc1ccncc1` stands 1.5 µM.
As to `C=C1C(=O)C23C(O)C1CCC2C12COC3(O)C(O)C1C(C)(C)CCC2O` (stereo not drawn), the AC50 is 3.3 µM.
Under `CCCOc1ccc(C(=O)NNC(=S)NC(=O)CC)cc1` stands 24.4 µM.
Under `NC(=Nc1nc(-c2ccccn2)cc2ccccc12)c1ccccn1` stands < 0.26 µM; under `Cc1sc2ncnc(N3CCN(CCOc4ccc(Cl)cc4)CC3)c2c1C`, 1.35 µM.
Under `O=C(c1ccc(S(=O)(=O)c2ccccc2Cl)c([N+](=O)[O-])c1)N1CCN(Cc2ccccc2)CC1` stands 5.77 µM; under `COc1ccccc1NC(=O)Cn1cc(C(=O)C2CC2)c2ccccc21`, 4.76 µM; under `CS(=O)(=O)c1ccc(C(=O)OCC(=O)Nc2cccnc2Cl)cc1[N+](=O)[O-]`, 9.09 µM.
On to `Cc1cc(C)c(-c2csc(NC(=O)CCCc3nc4ccccc4c(=O)[nH]3)n2)c(C)c1`, for which the AC50 was 2.97 µM.
As for `Nc1nc(N)c(-c2cccc(C(F)(F)F)c2)c(Cc2cccc(C(F)(F)F)c2)n1`, the AC50 was 3.6 µM.
Under `COCc1c(C(=O)Nc2cccc(S(=O)(=O)N3CCCCC3)c2)oc2ccccc12` stands 9.63 µM.
Under `CCc1ccc(CNC(=O)c2cc3c(C)nc4ccccc4c3o2)cc1` stands 2.02 µM.
`CCCC(=O)NC(c1ccc(C(C)C)cc1)c1ccc2cccnc2c1O` (stereo not drawn): the concentration at half-maximal activity (AC50) was 0.47 µM.
Under `COCCn1c(CN2CCN(c3cccc(Cl)c3)CC2)nc2c1c(=O)n(C)c(=O)n2C` stands 10.7 µM; under `CCCCCCCCCCOC(=O)Cn1c(COc2ccc(OC)cc2)[n+](C)c2ccccc21`, 2.01 µM; under `O=C(NCCc1ccccc1)c1ccc2c(c1)OCCO2`, 2.16 µM.
On to `COc1ccc(C(=O)/C=C/C(=O)N(CC(=O)NCCC(C)C)Cc2cccs2)c(O)c1`, for which the AC50 is 3.49 µM.
Under `Cc1ccc(-n2ncc3c2CCCC3NC(=O)c2ocnc2C)cc1C` (stereo not drawn) stands 1.29 µM.
Under `c1ccc(-c2noc(-c3ccc4ccccc4c3)n2)nc1` stands 1.98 µM.
Under `COC(=O)C1=C(c2ccc(F)cc2OCc2ccccc2)C[C@@H]2CC[C@H]1N2C(=O)NC1Cc2ccccc2C1` stands 8 µM.
Take `O=[N+]([O-])c1cc(S(=O)(=O)C(F)(F)F)ccc1Sc1nc2ccccc2s1`: the AC50 was 2.45 µM.
`O=C1CCc2cccc(O)c2N1`: the AC50 was 12.2 µM.
Under `COCCN(CC(=O)NC1CCCCC1)C(=O)/C=C/C(=O)c1ccc(OC)cc1O` stands 2.58 µM; under `CCc1ccc(CN(C)C(=O)c2cc(COc3cccc4cnccc34)on2)cc1`, 1.92 µM; under `CCOc1ccc(N2C(=O)CC(Sc3nnnn3-c3ccccc3)C2=O)cc1` (stereo not drawn), 11.5 µM.
Under `Cc1cccc(C)c1NC(=O)CN(C)C(=O)c1cc(S(=O)(=O)N(C)C)ccc1N1CCCC1` stands 27.1 µM; under `Cc1ccc(C)c(S(=O)(=O)N2CCN(C(=O)C3CCN(c4ncnc5sc(C)c(C)c45)CC3)CC2)c1`, 2.82 µM.
With `CCN(CC)CCn1c(=N)n(CC(O)COc2cccc(C)c2)c2ccccc21` (stereo not drawn), the AC50 is 4.39 µM.
On to `COCCC1CCCCN1C(=O)c1cc(COc2ccc(-n3cncn3)cc2)on1` (stereo not drawn), for which the AC50 is 0.57 µM.
Under `O=C(NCc1cccnc1)/C(=C/c1ccc(-c2ccc(Cl)cc2)o1)S(=O)(=O)c1ccccc1` stands 5.35 µM.
Under `COc1ccc(NC(=O)CCOc2cc(C)ccc2C)cc1S(=O)(=O)N1CCCCC1` stands 10.4 µM; under `O=C(Nc1ccc(N2CCN(C(=O)c3ccc(Cl)cc3)CC2)cc1)c1ccc2c(c1)OCCO2`, 2.54 µM.
Under `N=C1S/C(=C\c2ccc(-c3cccc(Cl)c3)o2)C(=O)N1c1nccs1` stands 2.82 µM; under `COc1ccc(-c2cc(C(F)(F)F)nc(S(=O)(=O)CCCC(=O)Nc3cccnc3Cl)n2)cc1OC`, 3.17 µM.
Turning to `Cc1ccc(NC(=O)C2CCC(C(C)(C)C)CC2)cc1S(=O)(=O)N1CCOCC1` (stereo not drawn), the concentration at half-maximal activity (AC50) was 12.1 µM.
Take `C=C1C(=O)O[C@@H]2C[C@@H](C)[C@@H]3C=CC(=O)[C@@]3(C)[C@@H](O)[C@H]12`: the AC50 is 0.825 µM.
Consider `Cc1cccc(C(=O)Nc2ccc(C(=O)/C=C/c3cccnc3)cc2)c1`, for which the AC50 was 6.23 µM.
Under `Cc1ccc(Nc2c(-c3ccccn3)nc3ccc(C)cn23)cc1` stands 1.74 µM; under `CCc1ccc(NC(=O)C2CCN(S(=O)(=O)c3ccc4c(c3)NC(=O)C(C)S4)CC2)cc1` (stereo not drawn), 7.08 µM; under `N#Cc1cc(-c2ccccc2)[nH]c1-c1nccc2ccccc12`, 3.42 µM.
Under `CC(C)C[C@@H](CO)N(Cc1ccccc1)S(=O)(=O)N(Cc1ccccc1)[C@H](CO)CC(C)C` stands 10.1 µM; under `CC1Sc2ccc(S(=O)(=O)N3CCC(C(=O)Nc4cccc(Cl)c4)CC3)cc2NC1=O` (stereo not drawn), 3.27 µM.
For the compound `Cc1nc2nc(C)n(CCN3CCOCC3)c(=O)c2c(-c2cccc([N+](=O)[O-])c2)c1C(=O)CCCCCCCCCCN1CCC(c2ccccc2)(c2ccccc2)CC1`, the AC50 is 7.38 µM.
Under `CCOC(=O)c1oc2ccc(S(=O)(=O)n3nc(-c4ccc(OC)cc4)cc3N)cc2c1C` stands 1.99 µM; under `O=C(NCc1cccc(Cl)c1)c1cc(COc2ccc3ncccc3c2)on1`, 3.05 µM.
Under `CCSc1nc2ccccc2n1C(=O)/C=C/c1ccc(OC)c(OC)c1` stands 0.962 µM; under `O=C(Nc1ccc(N2CCOCC2)cc1)c1ccc(Cl)c(S(=O)(=O)N2CCCCC2)c1`, 0.81 µM; under `CCOc1ccc(/C=C/[N+](=O)[O-])c2ccccc12`, 4.27 µM.
Under `CCCCn1c(CN(C)Cc2ccccc2)nc2c1c(=O)n(C)c(=O)n2C` stands 2.38 µM; under `Nc1nnc(SCC(=O)Nc2ccc(N3CCOCC3)cc2)s1`, 16.8 µM; under `Cc1ccccc1OCCn1cc(C(=S)N2CCCC2)c2ccccc21`, 24.3 µM.
`OCc1ccc(O)c2ncccc12`: the AC50 is 1.66 µM.
Under `O=C(CSc1nnc(-c2cccnc2)s1)Nc1ccnc2ccccc12` stands 0.661 µM.
Under `CC(C)c1ccc(NC(=O)Nc2nc(C(N)c3ccccc3)cs2)cc1` (stereo not drawn) stands 2.48 µM; under `CC(Nc1ncnc2sccc12)c1ccccc1` (stereo not drawn), 0.505 µM.
Under `COc1ccc(NS(=O)(=O)c2cccc(NC(=O)c3ccc(S(=O)(=O)N4CCCCCC4)cc3)c2)cc1` stands 0.829 µM; under `COC(=O)C1=C(c2ccc(-c3ccccc3)c(F)c2)C[C@@H]2CC[C@H]1N2C(=O)NCC1CC1`, 4.32 µM.
In the case of `CN(C)CCN1C(=O)c2cccc3cc([N+](=O)[O-])cc(c23)C1=O`, the AC50 was 1.11 µM.
Under `C[C@H]1CCC/C=C/[C@@H]2C[C@H](O)C[C@H]2[C@@H](O)/C=C/C(=O)O1` stands 2.17 µM; under `Cc1cc([N+](=O)[O-])ccc1-c1ccc(C2Nc3ccccc3C(=O)N2O)o1` (stereo not drawn), 3.32 µM; under `Cc1nc2ccccn2c1C(=O)NC1CCCc2ccccc21` (stereo not drawn), 2.47 µM.
Regarding `Cc1cc(C)n2nc(SCC(=O)c3cc(C)n(-c4cc(C)on4)c3C)nc2n1`, the AC50 was 2.46 µM.
Under `COC(=O)[C@]1(C)CCC[C@@]2(C)C3CC[C@@]4(C)C[C@]3(CCC21)CC(=O)N4Cc1ccc(OC)cc1` (stereo partly drawn) stands 8.16 µM; under `Cc1cc(Cl)n2c(nc3cc(F)c(F)cc32)c1C#N`, 3.56 µM.
Under `Oc1ccc(CN2CCCc3ccccc32)c2cccnc12` stands 5.4 µM; under `CCOc1cc(/C=C\[N+](=O)[O-])ccc1OCC(=O)Nc1ccccc1C`, < 0.26 µM.
Take `COC(=O)C1CN(C#N)N(c2ccc(Cl)cc2)C12c1ccccc1-c1ccccc12` (stereo not drawn): the AC50 was < 0.26 µM.
For the compound `O=C(c1ccccc1)C(CCC(CN1CCOCC1)C(=O)c1ccccc1)CN1CCOCC1` (stereo not drawn), the AC50 was 12.8 µM.
Under `O=C(OCc1ccccc1)N(CCCCN(CCCNCc1ccccc1)C(=O)OCc1ccccc1)CCCNCc1ccccc1` stands 5.36 µM.

The values above are taken from PubChem BioAssay AID743417 (Broad Institute, 2014).
